Measured values as given in article PMC10821286 (Marine Drugs, 2023).
Converted amounts (≈) assume the structure as drawn. Like-named read-outs stand apart in the source and are kept apart here. One block for each compound: values may come before it. Where a SMILES comes first, the peptide text is derived from it. Bridges are numbered along the chain shown (N, C = ends).

Legend:
S. hyicus NCTC 10350 = test: microbe, parasite or virus in culture; format: cell-based; conditions: 1 × 10^5 CFU/mL, 37 °C, 12–18 h, triplicate
Procedure: (§1) Each experiment was performed in triplicate.

[1] = system: S. pseudintermedius A2101; test: organism not typed; format: cell-based; conditions: microbroth dilution, 1 × 10^5 CFU/mL, 37 °C, 12–18 h, triplicate
Procedure: as §1

mouse red blood cells = conditions: 128 μg/mL; mouse erythrocytes, 37 °C, 1 h
Procedure: Erythrocytes from mice of SPF grade were centrifuged at 2000 rpm for 5 min, followed by washes with saline solution three times. […] The mixture was then incubated at 37 °C for 1 h. Subsequently, it was centrifuged at 5000 rpm for 5 min and the supernatant was collected for measurement of the absorbance at OD540 nm. The 0.9% NaCl and 0.1% Triton X-100 were used as blank (A0) and positive (A100) controls, respectively [32]. The percentage of peptide hemolysis is calculated as follows: Hemolysis (%) = [(A − A0)/(A100 − A0)] × 100. Each experiment was performed in triplicate, and data were analyzed by the GraphPad Prism (version 8, USA, the software download from https://www.graphpad-prism.cn/, accessed on 7 June 2023).

Hacat cells = conditions: 24 h, cck-8
Procedure: Cell survival rate is calculated as follows: Survival rate (%) = (A/Acontrol) × 100.

S. aureus ATCC 25923 = test: microbe, parasite or virus in culture; format: cell-based, Staphylococcus aureus; conditions: 1 × 10^5 CFU/mL, 37 °C, 12–18 h, triplicate
Procedure: as §1

S. aureus E48 = test: microbe, parasite or virus in culture; format: cell-based, Staphylococcus aureus; conditions: microbroth dilution, 1 × 10^5 CFU/mL, 37 °C, 12–18 h, triplicate
Procedure: as §1

S. aureus ATCC 43300 = test: microbe, parasite or virus in culture; format: cell-based, Staphylococcus aureus; conditions: 1 × 10^5 CFU/mL, 37 °C, 12–18 h, triplicate
Procedure: as §1

S. epidermidis G-81 [2] = test: microbe, parasite or virus in culture; format: cell-based, Staphylococcus epidermidis; conditions: 1 × 10^5 CFU/mL, 37 °C, 12–18 h, triplicate
Procedure: as §1

[3] = system: S. epidermidis ATCC 12228; test: microbe, parasite or virus in culture; format: cell-based, Staphylococcus epidermidis; conditions: 1 × 10^5 CFU/mL, 37 °C, 12–18 h, triplicate
Procedure: as §1

S. epidermidis G-81 [4] = test: Murine subcutaneous abscess model of S. epidermidis infection; format: in vivo, BALB/c mice; conditions: mice, day three post-infection
Procedure: The sterile saline was used for rapid washing twice.
The six-week-old BALB/c mice were divided randomly into five groups of nine animals: a normal saline control group, an infection group, three drug treatment groups (including AOD treatment in two groups and lincomycin treatment in one group). The hair removal solution was applied to the abdomen of each mouse in every group. One day later, each group, except for the control group, was subcutaneously injected with 0.1 mL of S. epidermidis G-81 at a concentration of 1 × 10^10 CFU/mL. […] In contrast, the infected group received an injection of 10 μL normal saline. The treatment duration was three days, and we continuously observed the weight and volume changes in the abscesses for 15 days. […] […] The results were presented as means ± standard deviation (SD).

trypsin = trypsin 250 U/mg, pH 8.0, ratio 10:1, 37 °C, 4 h; read-out MIC against S. epidermidis, triplicate
Procedure: (§2) Each experiment was performed in triplicate, and data were analyzed by the GraphPad Prism (version 8, USA, the software download from https://www.graphpad-prism.cn/, accessed on 7 June 2023).

[5] = 100 °C, one hour in PBS; read-out MIC against S. epidermidis
Procedure: as §2

pepsin = pepsin 3000 U/mg, pH 2.0, ratio 10:1, 37 °C, 4 h; read-out MIC against S. epidermidis, triplicate
Procedure: as §2

[6] = system: S. epidermidis ATCC 35984; conditions: microbroth dilution, 1 × 10^5 CFU/mL, 37 °C, 12–18 h, triplicate
Procedure: (§3) The strains to be tested were cultured overnight at 37 °C and then transferred to fresh medium until the logarithmic phase of growth was reached. […] The plate was then incubated at 37 °C for 12–18 h. The minimum concentration of no bacterial growth was recorded as the MIC value. Each experiment was performed in triplicate.

S. agalactiae ATCC 13813 = conditions: microbroth dilution, 1 × 10^5 CFU/mL, 37 °C, 12–18 h, triplicate
Procedure: as §3

Ion stability = format: physicochemical; conditions: Zn2+, Mg2+, Ca2+, NH4+, K+, Na+; 37 °C, 4 h (method); read-out MIC against S. epidermidis
Description: The results were presented as means ± standard deviation (SD).

S. epidermidis G-81 [7] = test: Time-killing curves; format: cell-based, Staphylococcus epidermidis; conditions: S. epidermidis G-81, lincomycin 1× and 2× MIC (positive control), 24 h
Procedure: Samples were collected at intervals of 0, 0.5, 1, 2, 4, 6, 8, 10, 12, and 24 h, respectively, and subjected to 10-fold serial dilutions followed by colony counting. PBS and Lincomycin were used as negative and positive controls. […] The results were presented as means ± standard deviation (SD).

E. coli ATCC 25922 = test: MIC, microbroth dilution; format: cell-based; conditions: Escherichia coli, ATCC25922, 1 × 10^5 CFU/mL, 37 °C, 12–18 h, triplicate

Compound: CC[C@H](C)[C@@H]1NC(=O)[C@H](CO)NC(=O)[C@H](CCCNC(=N)N)NC(=O)[C@@H]2CSSC[C@@H](C(=O)N[C@@H](Cc3ccc(O)cc3)C(=O)N[C@@H](CCCNC(=N)N)C(=O)N[C@@H](CO)C(=O)O)NC(=O)[C@H]([C@@H](C)O)NC(=O)[C@@H]3CSSC[C@H](NC(=O)[C@H](CCC(N)=O)NC(=O)[C@H](Cc4ccc(O)cc4)NC(=O)[C@H](CCCNC(=N)N)NC(=O)[C@H](CC(N)=O)NC(=O)[C@H](Cc4c[nH]c5ccccc45)NC(=O)[C@@H]4CCCN4C(=O)[C@@H](NC(=O)CNC(=O)[C@H](Cc4ccccc4)NC(=O)CN)CSSC[C@H](NC(=O)[C@H](Cc4ccc(O)cc4)NC(=O)CNC(=O)CNC(=O)[C@H](CC(C)C)NC(=O)[C@H](CCCNC(=N)N)NC(=O)CNC1=O)C(=O)N[C@@H](C)C(=O)NCC(=O)N[C@@H](CO)C(=O)N[C@@H](CC(C)C)C(=O)N[C@@H](CCCNC(=N)N)C(=O)N[C@@H](CC(C)C)C(=O)N[C@@H]([C@@H](C)O)C(=O)N3)C(=O)N[C@@H](Cc1c[nH]cn1)C(=O)N[C@@H](CO)C(=O)N[C@@H](Cc1c[nH]cn1)C(=O)N2 [AOD] (H-GFGCPWNRYQCHSHCRSIGRLGGYCAGSLRLTCTCYRS-OH; disulfide 4-25, 11-33, 15-35)
MIC (S. hyicus NCTC 10350; microbroth dilution): 16 µg/mL (≈ 3.75 µM)
MIC [1]: 8 µg/mL (≈ 1.88 µM)
hemolysis rate (mouse red blood cells): less than 0.5%
cell survival rate (Hacat cells; 128 μg/mL): over 83%
cell survival rate (Hacat cells; 128 mg/mL (so in the source)): 98%
MIC (S. aureus ATCC 25923; microbroth dilution): 16 µg/mL (≈ 3.75 µM)
MIC (S. aureus E48): 8 µg/mL (≈ 1.88 µM)
MIC (S. aureus ATCC 43300; microbroth dilution): 8 µg/mL (≈ 1.88 µM)
MIC (S. epidermidis G-81 [2]; microbroth dilution): 4 µg/mL (≈ 0.938 µM)
MIC ([3]; microbroth dilution): 4 µg/mL (≈ 0.938 µM)
heart indices (S. epidermidis G-81 [4]): elevated only in the AOD-treated group
MIC values after treatment with trypsin (trypsin): remained unchanged
antibacterial activity remaining after heating [5]: 20%
MIC values after treatment with pepsin (pepsin): remained unchanged
MIC [6]: 4 µg/mL (≈ 0.938 µM)
MIC (S. agalactiae ATCC 13813): 4 µg/mL (≈ 0.938 µM)
ion stability (Ion stability): remarkable stability

MIC (S. hyicus NCTC 10350; Staphylococcus hyicus, NCTC10350, microbroth dilution, read-out: MIC): 32 µg/mL (≈ 78.7 µM)
MIC ([1]; read-out: MIC): 32 µg/mL (≈ 78.7 µM)
MIC (S. aureus ATCC 25923; Staphylococcus aureus, ATCC25923, microbroth dilution, read-out: MIC): 1 µg/mL (≈ 2.46 µM)
MIC (S. aureus E48; Staphylococcus aureus, read-out: MIC): 1 µg/mL (≈ 2.46 µM)
MIC (S. aureus ATCC 43300; Staphylococcus aureus, ATCC43300, microbroth dilution, read-out: MIC): > 64 µg/mL
MIC (S. epidermidis G-81 [2]; Staphylococcus epidermidis, G81, microbroth dilution, read-out: MIC): 4 µg/mL (≈ 9.84 µM)
MIC ([3]; Staphylococcus epidermidis, ATCC12228, microbroth dilution, read-out: MIC): 4 µg/mL (≈ 9.84 µM)
MIC (E. coli ATCC 25922): 2 µg/mL (≈ 4.92 µM)
Compound: CCC[C@@H]1C[C@@H](C(=O)N[C@@H]([C@H]2O[C@H](SC)[C@H](O)[C@@H](O)[C@H]2O)[C@@H](C)O)N(C)C1 [Lincomycin, reference compound]
course of bacterial counts (S. epidermidis G-81 [7]): gradual decrease
